Experimental findings from ChEMBL document CHEMBL4382196, “Unraveling the Prenylation-Cancer Paradox in Multiple Myeloma with Novel Geranylgeranyl Pyrophosphate Synthase (GGPPS) Inhibitors” (J Med Chem, 2018) are described below.

The source made the active and inactive calls. The rule behind the calls is not given here.

In data set [1] the target is T1, Farnesyl pyrophosphate synthase (Homo sapiens, UniProt P14324).
T1 sequence (P14324 whole entry): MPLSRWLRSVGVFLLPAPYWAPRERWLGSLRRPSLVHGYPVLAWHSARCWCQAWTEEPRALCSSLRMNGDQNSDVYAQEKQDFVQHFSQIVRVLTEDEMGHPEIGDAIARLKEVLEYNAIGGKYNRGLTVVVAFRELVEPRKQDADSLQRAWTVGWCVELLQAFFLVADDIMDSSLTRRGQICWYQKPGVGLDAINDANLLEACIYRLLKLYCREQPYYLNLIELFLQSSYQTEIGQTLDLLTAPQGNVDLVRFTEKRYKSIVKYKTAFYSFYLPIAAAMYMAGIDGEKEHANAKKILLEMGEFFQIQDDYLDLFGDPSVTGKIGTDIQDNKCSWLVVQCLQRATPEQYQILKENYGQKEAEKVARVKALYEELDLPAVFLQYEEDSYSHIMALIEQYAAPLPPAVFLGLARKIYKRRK
The experiment in a line: Inhibition of human FPPS using [14C]-IPP and […] after 10 mins by scintillation counting.

Data set [2] has as its system RPMI-8226. The experiment in a line: Induction of apoptosis in human RPMI8226 cells assessed as viable cells at 1 uM after 72 hrs by APC Annexin V/eFluor-780-viability double staining-based FACS analysis (reference value: 87.3%). Format: functional. Conditions: RPMI-8226, 72 h, read-out: Activity. (In general: A flow cytometer gives signals particle by particle.)
Data set [3] has as its system RPMI-8226. The experiment in a line: Induction of apoptosis in human RPMI8226 cells assessed as early apoptotic cells at 1 uM after 72 hrs by APC Annexin V/eFluor-780-viability double staining-based FACS analysis (reference value: 3.31%). Format: functional.
Data set [4] has as its system RPMI-8226. The data set can be described thus: Induction of apoptosis in human RPMI8226 cells assessed as late apoptotic cells at 1 uM after 72 hrs by APC Annexin V/eFluor-780-viability double staining-based FACS analysis (reference value: 5.80%). Type of data set: functional.
Data set [5] deals with RPMI-8226. The experiment in a line: Induction of apoptosis in human RPMI8226 cells assessed as necrotic cells at 1 uM after 72 hrs by APC Annexin V/eFluor-780-viability double staining-based FACS analysis (reference value: 3.60%). Format: functional.
The test system of data set [6] is RPMI-8226. The experiment in a line: Induction of apoptosis in human RPMI8226 cells assessed as viable cells at 1 uM after 72 hrs in presence GGOH by APC Annexin V/eFluor-780-viability double staining-based FACS analysis (reference value: 87.3%). Particulars: RPMI-8226, 72 h, read-out: Activity. Format: functional.
Data set [7] has as its system RPMI-8226. The data set can be described thus: Induction of apoptosis in human RPMI8226 cells assessed as early apoptotic cells at 1 uM after 72 hrs in presence GGOH by APC Annexin V/eFluor-780-viability double staining-based FACS analysis (reference value: 3.31%). Format: functional.
The subject of data set [8] is RPMI-8226. The data set can be described thus: Induction of apoptosis in human RPMI8226 cells assessed as late apoptotic cells at 1 uM after 72 hrs in presence GGOH by APC Annexin V/eFluor-780-viability double staining-based FACS analysis (reference value: 5.80%). Type of data set: functional.
The test system of data set [9] is RPMI-8226. The data set can be described thus: Induction of apoptosis in human RPMI8226 cells assessed as necrotic cells at 1 uM after 72 hrs in presence GGOH by APC Annexin V/eFluor-780-viability double staining-based FACS analysis (reference value: 3.60%). Format: functional.
For data set [10], the system named is NCI/ADR-RES. The data set can be described thus: Antiproliferative activity against human NCI-ADR-RES cells after 72 hrs by celltiter-glo luminescent assay. Type of data set: functional, cell-based. (Cellular ATP, detected with luciferase, serves as a proxy for viable cell number.)
In data set [11] the test system is MIA PaCa-2. The data set can be described thus: Antiproliferative activity against human MIAPaCa2 cells at 10 uM after 72 hrs by celltiter-glo luminescent assay. Format: functional, cell-based.
Data set [12] in a line: Half life in CD1 mouse liver microsomes by LC-MS/MS analysis. Type of data set: ADME, Microsome. (In general: Liver microsomes are a subcellular fraction often used to study metabolism.)
Data set [13] can be described thus: Half life in Sprague-Dawley rat liver microsomes by LC-MS/MS analysis. Type of data set: ADME, Microsome.
A short description of data set [14]: Half life in human liver microsomes by LC-MS/MS analysis. Format: ADME, Microsome.
The nature of data set [15]: Toxicity in Vk*MYC transgenic mouse model assessed as weight loss at 3 mg/kg/day, ip administered over 14 days and measured at 4 hrs post last dose (reference value: 10 to 16%). Type of data set: organism-based. Particulars: in vivo.
Data set [16] is described as follows: Hepatotoxicity in Vk*MYC transgenic mouse model assessed as effect of serum AST levels at 3 mg/kg/day, ip administered over 14 days and measured at 4 hrs post last dose relative to control. Format: toxicity, organism-based. Particulars: in vivo.
The nature of data set [17]: Hepatotoxicity in Vk*MYC transgenic mouse model assessed as effect of serum ALT levels at 3 mg/kg/day, ip administered over 14 days and measured at 4 hrs post last dose relative to control. Conditions: in vivo. Type of data set: toxicity, organism-based.
Data set [18] has as its system Hydroxyapatite. The data set can be described thus: Binding affinity to bone mineral hydroxyapatite at 50 uM by 1H NMR assay.

The term IC50 denotes the midpoint of a concentration-inhibition curve. A low value points to greater potency. Molecule `COc1ccc(NC(=O)c2cccc(-c3nc(NC(P(=O)(O)O)P(=O)(O)O)c4ccsc4n3)c2)cc1F` gave an IC50 in data set [1] of 1.4 µM. The viability at 1 µM in data set [2] came out at 12.3%; in [6], 85.4%. Moreover, the Activity came out at 4.42% in data set [3]; 43% in data set [4]; 40.2% in data set [5]; 3.06% in data set [7]; 6.18% in [8]; 5.33% in data set [9]. For the same molecule, the Activity in [15] is 15 to 28%; in [16], “Toxic”; in data set [17], “Toxic”. Besides, the result in data set [10], in data set [11] and in data set [18] was Active. Besides, the t1/2 in data set [12] is 2.13 h; in data set [13], 3.12 h; in data set [14], 2.57 h.
